Test results reported in patent US5177077A, “1,4-disubstituted piperazines” (Novo Nordisk A/S, priority 1990, dated 1993).
Read-outs that look alike come from different tables or passages of the source.

Assays:
[1] = tested on: motility of mice; test: Test 2: increase of motility of mice (photocell crossings); assay type: in vivo, Male NMRI mice; conditions: for ED50: Mus musculus, po, lowest ED50 determined at a 20 min interval during the 360 min test period, drugs administered orally
Procedure: The compounds were also tested for their ability to increase the motility of mice following intravenous administration using the method outlined below.
Male NMRI mice are used (20±2 g). The animals are housed 20-30 per cage under constant temperature (20°±1°) and relative humidity (40-60%). The animals are brought into the experimental room in the afternoon, the day before they undergo testing.
The experimentally-naive mice are acclimatized by being placed in a plexiglass box (WLH: 20×20×38 cm), four per box, for a 120 min period, and then treated with the test compound whereafter they are replaced in the plexiglass box.
The plexiglass box is equipped with a frame of photocells (spaced equidistantly) which are situated so as to detect locomotor behaviour of the animals (1 cm above the floor). The photocell chamber is housed in an sound-insulated, dimly-lit, ventilated chest. As a measure of exploratory behaviour, the number of photocell crossings in a 360 min period is detected using a minicomputer. Testing is made between 7:00 and 17.00 h.
Drugs are administered orally simultaneously with start of testing; N=4/dose; 4-5 doses of test drug is given in a volume of 10 ml/kg.
Computer programmed log-probit methods are used to generate an ED50 in mg/kg using as minimum the control result, and as maximum values are used 7700 (this latter value has been experimentally found as the maximum motility counts after d-amphetamine in a 20 min period).
The test result is the lowest ED50 value determined at a 20 min interval during the 360 min test period.

[2] = biological target: T1, DA-uptake complex (Rattus norvegicus, UniProt P23977); test: Test 1: inhibition of 3H-GBR 12935 binding to the DA-uptake complex in a striatal membrane preparation
T1 construct: in a striatal membrane preparation; from tissue; host or cells: striatal membranes
Procedure: The compounds were tested for their ability to inhibit the binding of 3H-GBR 12935 to the DA-uptake complex in a striatal membrane preparation following the method described by Andersen (Eur. J. Pharmacol. 166: 493-504, 1989).

T1 sequence (P23977 whole entry, one chain of several): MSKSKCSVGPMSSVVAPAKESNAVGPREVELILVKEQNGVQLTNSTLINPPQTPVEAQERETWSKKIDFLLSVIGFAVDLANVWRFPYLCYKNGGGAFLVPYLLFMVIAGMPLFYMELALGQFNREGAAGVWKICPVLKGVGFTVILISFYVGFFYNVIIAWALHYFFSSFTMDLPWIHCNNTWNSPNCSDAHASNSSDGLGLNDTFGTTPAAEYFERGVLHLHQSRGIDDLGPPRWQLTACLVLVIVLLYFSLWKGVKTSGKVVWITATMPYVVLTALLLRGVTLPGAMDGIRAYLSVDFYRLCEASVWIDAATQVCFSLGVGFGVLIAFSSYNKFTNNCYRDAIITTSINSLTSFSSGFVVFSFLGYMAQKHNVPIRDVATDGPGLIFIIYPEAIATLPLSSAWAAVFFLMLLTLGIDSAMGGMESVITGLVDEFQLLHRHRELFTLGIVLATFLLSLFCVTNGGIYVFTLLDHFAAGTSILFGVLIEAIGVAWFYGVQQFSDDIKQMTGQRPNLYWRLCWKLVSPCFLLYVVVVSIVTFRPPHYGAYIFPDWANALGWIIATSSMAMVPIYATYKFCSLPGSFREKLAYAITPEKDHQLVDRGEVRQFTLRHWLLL

| Structure (SMILES) | ED50 [1] [mg/kg] | IC50 ([2]; striatal membrane preparation, method of Andersen 1989, read-out: Test 1 (inhibition of 3H-GBR 12935 binding)) [nM] | IC50 [2] [nM] | maximum motility counts ([1]; in a 20 min period, used as maximum for the log-probit ED50) |
| --- | --- | --- | --- | --- |
| Cc1ccsc1C(OCCN1CCN(CCCc2ccccc2)CC1)c1ccc(F)cc1 (stereo not shown) [Example 1] | 30 | 9 | – | – |
| Fc1ccc(C(OCCN2CCN(CC=Cc3ccco3)CC2)c2cccs2)cc1 (stereo not shown) [Example 2, 1-[2-((4-fluorophenyl)-(2-thienyl)methoxy)ethyl]-4-[3-(2-furyl)-2-propenyl]piperazine] | 17.4 | – | 4.7 | – |
| Fc1ccc(C(OCCN2CCN(CCCc3ccccc3)CC2)c2ccsc2)cc1 (stereo not shown) [Example 3, 1-[2-((4-fluorophenyl)-(3-thienyl)methoxy)ethyl]-4-(3-phenylpropyl)piperazine] | 32 | – | 3.7 | – |
| C[C@H](N)Cc1ccccc1 [d-amphetamine, reference compound] | – | – | – | 7700 |
